Here are results for three compounds from patent US20120010164A1, “ANTIVIRAL AGENTS” (priority 2009, published 2012).

Structures are written as SMILES. A value given as a limit tells only on which side of the number the result lay.

Data set [1] in a line: Cellular toxicity counterscreen (CC50). The class given is cell-based. As to conditions: human, HuH-7 hepatoma cells. As to the method:
The compounds of the present invention were also evaluated for cellular toxicity and anti-viral specificity in the counterscreens described below.

The test system of data set [2] is subgenomic HCV Replicon in hepatoma (HuH-7) cells. As to the kind of experiment: Assay for inhibition of HCV RNA replication (replicon, in situ ribonuclease protection SPA). Format: cell-based. Conditions: Hepatitis C virus, HuH-7 replicon cells, activity ranges. The method, then: The compounds of the present invention were also evaluated for their ability to affect the replication of Hepatitis C Virus RNA in cultured hepatoma (HuH-7) cells containing a subgenomic HCV Replicon. The details of the assay are described below. This Replicon assay is a modification of that described in V. Lohmann, F. Korner, J-O. Koch, U. Herian, L. Theilmann, and R. Bartenschlager, “Replication of a Sub-genomic Hepatitis C Virus RNAs in a Hepatoma Cell Line,” Science 285:110 (1999).
The assay was an in situ Ribonuclease protection, Scintillation Proximity based-plate assay (SPA). 10,000-40,000 cells were plated in 100-200 μL of media containing 0.8 mg/mL G418 in 96-well cytostar plates (Amersham). Compounds were added to cells at various concentrations up to 100 μM in 1% DMSO at time 0 to 18 h and then cultured for 24-96 h. Cells were fixed (20 min, 10% formalin), permeabilized (20 min, 0.25% Triton X-100/PBS) and hybridized (overnight, 50° C.) with a single-stranded ^33P RNA probe complementary to the (+) strand NS5B (or other genes) contained in the RNA viral genome. Cells were washed, treated with RNAse, washed, heated to 65° C. and counted in a Top-Count Inhibition of replication was read as a decrease in counts per minute (cpm).
Human HuH-7 hepatoma cells, which were selected to contain a subgenomic replicon, carry a cytoplasmic RNA consisting of an HCV 5′ non-translated region (NTR), a neomycin selectable marker, an EMCV IRES (internal ribosome entry site), and HCV non-structural proteins NS3 through NS5B, followed by the 3′ NTR.

The term CC50 denotes the concentration at which the toxic effect on the cells reaches its halfway point. Low values mean harm at low concentration, high ones better tolerance by the cells. What is called EC50 is the concentration giving half of the maximal effect. A high value points to a less potent agent.

Compound `[N-]=[N+]=N[C@]1(CO)O[C@@H](n2ccc3c(N)ncnc32)[C@@H](F)[C@@H]1O` [Example 1, 7-(4-azido-2-deoxy-2-fluoro-β-D-arabinofuranosyl)-7H-pyrrolo[2,3-d]pyrimidin-4-amine] showed a CC50 in data set [1] of more than 100 µM. This compound also displayed an EC50 in data set [2] of less than 20 µM.
For `[N-]=[N+]=N[C@]1(CO)OC(n2cnc3c(N)ncnc32)[C@@H](F)[C@@H]1O` (stereo partly drawn) [Example 3, 9-(4-azido-2-deoxy-2-fluoro-b-D-arabinofuranosyl)-9H-purin-6-amine], the CC50 in data set [1] is more than 100 µM. In data set [2], this compound yielded a 50% effective concentration (EC50) of more than 100 µM.
Consider `[N-]=[N+]=N[C@]1(CO)O[C@@H](n2cc(F)c3c(N)ncnc32)[C@@H](F)[C@@H]1O` [Example 2, 7-(4-azido-2-deoxy-2-fluoro-β-D-arabinofuranosyl)-5-fluoro-7H-pyrrolo[2,3-d]pyrimidin-4-amine], for which the CC50 in data set [1] was more than 100 µM. The compound also came in with an EC50 in data set [2] of 20 to 100 µM.
